Assay results taken from patent US5286648A, “A84575 antibiotics” (Eli Lilly and Company, priority 1991, dated 1994).
In brackets after ≈: the same amount, converted by molar mass.

Experiments:
[1] = tested on: Bacteroides corrodens; assay: Susceptibility of anaerobic bacterial isolates, agar dilution (Table 13); type: cell-based; settings: Eikenella corrodens, 24 h
[2] = tested on: Streptococcus pyogenes; assay: In vitro activity vs. Streptococcus pyogenes strains, agar dilution, Mueller-Hinton agar (Table 11)
[3] = tested on: Peptococcus constellatus; assay: Susceptibility of anaerobic cocci isolates, agar dilution (Table 16); type: cell-based; settings: Streptococcus constellatus, 24 h
[4] = tested on: Propionibacterium acnes; assay: Susceptibility of anaerobic bacterial isolates, agar dilution (Table 13); type: cell-based; settings: Cutibacterium acnes, 24 h
[5] = tested on: Bacteroides malaninogenicus; assay: as above; type: cell-based; settings: 24 h
[6] = tested on: Clostridium perfringens; assay: microbe, parasite or virus in culture; type: cell-based; settings: 24 h
[7] = tested on: Hemophilus influenza; assay: In vitro activity vs. Hemophilus influenza strains, broth dilution, Shadler broth + 5% fildes extract (Table 12); type: cell-based
Excerpt: ^1 Using brothdilution method and testing the strains with Shadler
broth +5% fildes extract

[8] = tested on: Peptococcus magnus; assay: Susceptibility of anaerobic cocci isolates, agar dilution (Table 16); type: cell-based; settings: Finegoldia magna, 24 h
[9] = tested on: Streptococcus sp. (Group D); assay: In vitro activity vs. Streptococcus sp. (Group D) strains, agar dilution, Mueller-Hinton agar (Table 8); type: cell-based
[10] = tested on: Clostridium difficile; assay: Susceptibility of Clostridium difficile strains, agar dilution (Table 14); type: cell-based; settings: Clostridioides difficile, 24 h
Excerpt: (§1) *MIC Determined by the AgarDilution Method, Endpoints Read After 24Hr.

[11] = tested on: Bacteroides fragilis; assay: Susceptibility of anaerobic bacterial isolates, agar dilution (Table 13); type: cell-based
[12] = tested on: Streptococcus pneumoniae; assay: In vitro activity vs. Streptococcus pneumoniae strains, agar dilution, Mueller-Hinton agar (Table 10)
[13] = tested on: Fusobacterium necrophorum; assay: Susceptibility of anaerobic bacterial isolates, agar dilution (Table 13); type: cell-based; settings: 24 h
[14] = tested on: S. salivarius; assay: In vitro activity vs. miscellaneous Streptococcus strains, agar dilution, Mueller-Hinton agar (Table 9)
[15] = tested on: Clostridium septicum; assay: Susceptibility of anaerobic bacterial isolates, agar dilution (Table 13); type: cell-based; settings: strain 1128, 24 hr, A84575: 3 different lots
Excerpt: as §1

[16] = tested on: Bacteroides thetaiotaomicron; assay: as above; type: cell-based; settings: strain 1438, 24 hr, A84575: 3 different lots
Excerpt: as §1

[17] = tested on: Peptococcus prevoti; assay: as above; type: cell-based; settings: strain 1281; 24 hr; A84575: 3 different lots
Excerpt: as §1

[18] = tested on: Clostridium difficile; assay: as above; type: cell-based; settings: Clostridioides difficile; strain 2994; 24 hr; A84575: 3 different lots
Excerpt: as §1

[19] = tested on: Propionibacterium acnes; assay: Susceptibility of Propionibacterium acnes isolates, agar dilution (Table 15); type: cell-based; settings: Cutibacterium acnes, 24 h

CN[C@H](CC(C)C)C(=O)N[C@H]1C(=O)N[C@@H](CC(N)=O)C(=O)N[C@H]2C(=O)N[C@H]3C(=O)N[C@H](C(=O)N[C@H](C(=O)O)c4cc(O)cc(O)c4-c4cc3ccc4O)[C@H](O)c3ccc(c(Cl)c3)Oc3cc2cc(c3O[C@@H]2O[C@H](CO)[C@@H](O)[C@H](O)[C@H]2O[C@H]2C[C@](C)(N)[C@H](O)[C@H](C)O2)Oc2ccc(cc2Cl)[C@H]1O [Vancomycin]
MIC [1]: 16 µg/mL (≈ 11 µM)
MIC ([2]; ATCC12344, strain ATCC 12344): 1 µg/mL (≈ 0.69 µM)
MIC ([2]; strain 9931): 0.5 µg/mL (≈ 0.345 µM)
MIC ([2]; strain 10389): 0.5 µg/mL (≈ 0.345 µM)
MIC ([2]; strain 12385): 2 µg/mL (≈ 1.38 µM)
MIC ([2]; strain 12961): 1 µg/mL (≈ 0.69 µM)
MIC ([2]; strain C203): 1 µg/mL (≈ 0.69 µM)
MIC ([2]; strain DS663-72): 0.5 µg/mL (≈ 0.345 µM)
MIC ([2]; strain HB93): 1 µg/mL (≈ 0.69 µM)
MIC ([2]; strain K-1): 0.5 µg/mL (≈ 0.345 µM)
MIC ([2]; strain K-2): 0.5 µg/mL (≈ 0.345 µM)
MIC ([2]; strain K-3): 0.5 µg/mL (≈ 0.345 µM)
MIC ([2]; strain K-4): 1 µg/mL (≈ 0.69 µM)
MIC ([2]; strain K-5): 1 µg/mL (≈ 0.69 µM)
MIC ([2]; strain K-6): 0.5 µg/mL (≈ 0.345 µM)
MIC [3]: 1 µg/mL (≈ 0.69 µM)
MIC [4]: 4 µg/mL (≈ 2.76 µM)
MIC ([5]; strain 1856/28, A84575: 3 different lots): > 64 µg/mL
MIC ([5]; strain 2736, A84575: 3 different lots): 16 µg/mL (≈ 11 µM)
MIC [6]: 1 µg/mL (≈ 0.69 µM)
MIC ([7]; strain Astes): 64 µg/mL
MIC ([7]; strain Bond): 64 µg/mL
MIC ([7]; strain Bruno): 128 µg/mL
MIC ([7]; strain Harper): 64 µg/mL
MIC ([7]; strain Johnson): 64 µg/mL
MIC ([7]; strain Lassig): 32 µg/mL
MIC ([7]; strain Lawrence): 64 µg/mL
MIC ([7]; strain Newton): 64 µg/mL
MIC ([8]; strain 1401, A84575: 3 different lots): 0.125 µg/mL (≈ 0.0863 µM)
MIC ([8]; strain 1421, A84575: 3 different lots): 0.5 µg/mL (≈ 0.345 µM)
MIC ([8]; strain 29328, A84575: 3 different lots): 1 µg/mL (≈ 0.69 µM)
MIC ([9]; strain 282): 1 µg/mL (≈ 0.69 µM)
MIC ([9]; strain 8043): 1 µg/mL (≈ 0.69 µM)
MIC ([9]; strain 9901): 2 µg/mL (≈ 1.38 µM)
MIC ([9]; strain 9913): 1 µg/mL (≈ 0.69 µM)
MIC ([9]; strain 9933 Beta): 4 µg/mL (≈ 2.76 µM)
MIC ([9]; strain 9960): 4 µg/mL (≈ 2.76 µM)
MIC ([9]; strain 12253F): 1 µg/mL (≈ 0.69 µM)
MIC ([9]; strain 22521): 4 µg/mL (≈ 2.76 µM)
MIC ([9]; strain M10): 4 µg/mL (≈ 2.76 µM)
MIC ([9]; strain M11): 1 µg/mL (≈ 0.69 µM)
MIC ([9]; strain M12): 4 µg/mL (≈ 2.76 µM)
MIC ([9]; strain M13): 2 µg/mL (≈ 1.38 µM)
MIC ([9]; strain M20): 1 µg/mL (≈ 0.69 µM)
MIC ([9]; strain M21): 4 µg/mL (≈ 2.76 µM)
MIC ([9]; strain M28): 4 µg/mL (≈ 2.76 µM)
MIC ([9]; strain M36): 4 µg/mL (≈ 2.76 µM)
MIC ([9]; strain M38): 1 µg/mL (≈ 0.69 µM)
MIC ([9]; strain Shrigley): 2 µg/mL (≈ 1.38 µM)
MIC ([9]; strain Van Almen): 4 µg/mL (≈ 2.76 µM)
MIC ([9]; strain Vietnam): 2 µg/mL (≈ 1.38 µM)
MIC ([10]; strain 78, A84575: 3 different lots): 4 µg/mL (≈ 2.76 µM)
MIC ([10]; strain 107B, A84575: 3 different lots): 0.25 µg/mL (≈ 0.173 µM)
MIC ([10]; strain 111F, A84575: 3 different lots): 1 µg/mL (≈ 0.69 µM)
MIC ([10]; strain 1153, A84575: 3 different lots): 1 µg/mL (≈ 0.69 µM)
MIC ([10]; strain 2634, A84575: 3 different lots): 0.5 µg/mL (≈ 0.345 µM)
MIC ([10]; strain 3424-5B, A84575: 3 different lots): 1 µg/mL (≈ 0.69 µM)
MIC ([10]; strain 3816, A84575: 3 different lots): 1 µg/mL (≈ 0.69 µM)
MIC ([10]; strain 3950D, A84575: 3 different lots): 0.5 µg/mL (≈ 0.345 µM)
MIC ([10]; strain 6890, A84575: 3 different lots): 0.5 µg/mL (≈ 0.345 µM)
MIC ([10]; strain 8484, A84575: 3 different lots): 2 µg/mL (≈ 1.38 µM)
MIC ([10]; strain A-194, A84575: 3 different lots): 1 µg/mL (≈ 0.69 µM)
MIC ([10]; strain A-195, A84575: 3 different lots): 0.5 µg/mL (≈ 0.345 µM)
MIC ([10]; strain A-196, A84575: 3 different lots): 0.5 µg/mL (≈ 0.345 µM)
MIC ([10]; strain A-279, A84575: 3 different lots): 0.5 µg/mL (≈ 0.345 µM)
MIC ([10]; strain A-280, A84575: 3 different lots): 1 µg/mL (≈ 0.69 µM)
MIC ([10]; strain A-281, A84575: 3 different lots): 1 µg/mL (≈ 0.69 µM)
MIC ([10]; strain WAL-2112, A84575: 3 different lots): 1 µg/mL (≈ 0.69 µM)
MIC ([10]; strain WAL-3657, A84575: 3 different lots): 2 µg/mL (≈ 1.38 µM)
MIC ([10]; strain WAL-4268, A84575: 3 different lots): 1 µg/mL (≈ 0.69 µM)
MIC ([11]; Bacteroides fragilis, 24 h): 16 µg/mL (≈ 11 µM)
MIC ([11]; strain 1877, 24 hr, A84575: 3 different lots): 16 µg/mL (≈ 11 µM)
MIC ([11]; strain 1936B, 24 hr, A84575: 3 different lots): 16 µg/mL (≈ 11 µM)
MIC ([12]; ATCC6301, strain ATCC 6301): 4 µg/mL (≈ 2.76 µM)
MIC ([12]; strain 97P): 0.25 µg/mL (≈ 0.173 µM)
MIC ([12]; strain 2764): 0.25 µg/mL (≈ 0.173 µM)
MIC ([12]; strain BI5): 0.5 µg/mL (≈ 0.345 µM)
MIC ([12]; strain BI343): 0.25 µg/mL (≈ 0.173 µM)
MIC ([12]; strain BI348): 0.25 µg/mL (≈ 0.173 µM)
MIC ([12]; strain BI374): 4 µg/mL (≈ 2.76 µM)
MIC ([12]; strain BI508): 0.5 µg/mL (≈ 0.345 µM)
MIC ([12]; strain BI180351): 0.25 µg/mL (≈ 0.173 µM)
MIC ([12]; strain BI-492): 0.5 µg/mL (≈ 0.345 µM)
MIC ([12]; strain HZ-4-2): 0.25 µg/mL (≈ 0.173 µM)
MIC ([12]; strain M11-1-H7): 0.5 µg/mL (≈ 0.345 µM)
MIC ([12]; strain M11-1-H10): 0.25 µg/mL (≈ 0.173 µM)
MIC ([12]; strain M11-Z-Al): 0.25 µg/mL (≈ 0.173 µM)
MIC ([12]; strain Park I): 0.5 µg/mL (≈ 0.345 µM)
MIC [13]: 1 µg/mL (≈ 0.69 µM)
MIC [14]: 1 µg/mL (≈ 0.69 µM)
MIC [15]: 2 µg/mL (≈ 1.38 µM)
MIC [16]: 16 µg/mL (≈ 11 µM)
MIC [17]: 4 µg/mL (≈ 2.76 µM)
MIC [18]: 2 µg/mL (≈ 1.38 µM)
MIC ([19]; strain #44, A84575: 3 different lots): 0.5 µg/mL (≈ 0.345 µM)
MIC ([19]; strain #103, A84575: 3 different lots): 0.25 µg/mL (≈ 0.173 µM)
MIC ([19]; strain #104, A84575: 3 different lots): 0.5 µg/mL (≈ 0.345 µM)
MIC ([19]; strain #105, A84575: 3 different lots): 0.25 µg/mL (≈ 0.173 µM)
MIC ([19]; strain #106, A84575: 3 different lots): 0.5 µg/mL (≈ 0.345 µM)
MIC ([19]; strain #107, A84575: 3 different lots): 0.25 µg/mL (≈ 0.173 µM)
MIC ([19]; strain #5170, A84575: 3 different lots): 0.25 µg/mL (≈ 0.173 µM)
MIC ([19]; strain #5176, A84575: 3 different lots): 2 µg/mL (≈ 1.38 µM)
MIC ([19]; strain #5187, A84575: 3 different lots): 0.5 µg/mL (≈ 0.345 µM)
MIC ([19]; strain #5191, A84575: 3 different lots): 0.5 µg/mL (≈ 0.345 µM)
MIC ([19]; strain #5197, A84575: 3 different lots): 0.5 µg/mL (≈ 0.345 µM)
MIC ([19]; strain #5226, A84575: 3 different lots): 0.5 µg/mL (≈ 0.345 µM)
MIC ([19]; strain #5227, A84575: 3 different lots): 0.25 µg/mL (≈ 0.173 µM)
MIC ([19]; strain #5228, A84575: 3 different lots): 0.25 µg/mL (≈ 0.173 µM)
MIC ([19]; strain #5229, A84575: 3 different lots): 0.25 µg/mL (≈ 0.173 µM)
MIC ([19]; strain #5246, A84575: 3 different lots): 0.25 µg/mL (≈ 0.173 µM)
MIC ([19]; strain #5260, A84575: 3 different lots): 0.5 µg/mL (≈ 0.345 µM)
MIC ([19]; strain #5292, A84575: 3 different lots): 0.5 µg/mL (≈ 0.345 µM)
MIC ([19]; strain #8586A, A84575: 3 different lots): 0.5 µg/mL (≈ 0.345 µM)
